Marks after values point to notes of the source that are not given here.
Columns and labels:
Format in all cases: in vivo
[1] = tested on: Puccinia recondita f. sp. tritici; assay: Test A: wheat leaf rust, preventive spray on wheat seedlings, visual disease rating; settings: 100 = 100% disease control, 0 = no control
Source text: (§1) General protocol for preparing test suspensions for Tests A-E: the test compounds were first dissolved in acetone in an amount equal to 3% of the final volume and then suspended at the desired concentration (in ppm) in acetone and purified water (50/50 mix by volume) containing 250 ppm of the surfactant Trem® 014 (polyhydric alcohol esters). The resulting test suspensions were then used in Tests A-E. Spraying a 200 ppm test suspension to the point of run-off on the test plants was the equivalent of a rate of 800 g/ha.
The test suspension was sprayed to the point of run-off on wheat seedlings. The following day the seedlings were inoculated with a spore suspension of Puccinia recondita f. sp. tritici (the causal agent of wheat leaf rust) and incubated in a saturated atmosphere at 20° C. for 24 h, and then moved to a growth chamber at 20° C. for 6 days, after which time visual disease ratings were made.
(§2) Results for Tests A-E are given in Table A. In the Table, a rating of 100 indicates 100% disease control and a rating of 0 indicates no disease control (relative to the controls). All results are for compounds tested at 200 ppm except where followed by an asterisk “*” which indicates the compound was tested at 250 ppm. A dash (-) indicates no test results.

Septoria tritici = assay: Test B: wheat leaf blotch, preventive spray on wheat seedlings, visual disease rating; settings: 100 = 100% disease control, 0 = no control
Source text: as §1
(§3) The test suspension was sprayed to the point of run-off on wheat seedlings. The following day the seedlings were inoculated with a spore suspension of Septoria tritici (the causal agent of wheat leaf blotch) and incubated in a saturated atmosphere at 24° C. for 48 h, and then moved to a growth chamber at 20° C. for 19 days, after which time visual disease ratings were made.
as §2

Botrytis cinerea = assay: Test C: tomato Botrytis, preventive spray on tomato seedlings, visual disease rating; settings: 100 = 100% disease control, 0 = no control
Source text: as §1
as §3, with “tomato” for “wheat”, “Botrytis cinerea” for “Septoria tritici”, “tomato Botrytis)” for “wheat leaf blotch)”, “20°” for “24°”, “24°” for “20°”, “3” for “19”
as §2

[2] = tested on: Blumeria graminis f. sp. tritici; assay: Test D: wheat powdery mildew, preventive spray on wheat seedlings, visual disease rating; settings: 100 = 100% disease control, 0 = no control
Source text: as §1
The test suspension was sprayed to the point of run-off on wheat seedlings. The following day the seedlings were inoculated with a spore dust of Blumeria graminis f. sp. tritici, also known as Erysiphe graminis f. sp. tritici (the causal agent of wheat powdery mildew) and incubated in a growth chamber at 20° C. for 8 days, after which time visual disease ratings were made.
as §2

Septoria nodorum = assay: Test E: Septoria glume blotch, preventive spray on wheat seedlings, visual disease rating; settings: 200 ppm test suspension sprayed to run-off on wheat seedlings; 100 = 100% disease control, 0 = no control
Source text: as §1
as §3, with “nodorum” for “tritici”, “Septoria glume” for “wheat leaf”, “9” for “19”
as §2

[3] = 200 ppm test suspension sprayed to run-off on wheat seedlings
[4] = 200 ppm test suspension sprayed to run-off on tomato seedlings
[5] = 250 ppm (asterisk) test suspension sprayed to run-off on wheat seedlings
[6] = 250 ppm (asterisk) test suspension sprayed to run-off on tomato seedlings

SMILES	Test A disease control rating [1, 3]	Test B disease control rating (Septoria tritici; [3])	Test C disease control rating (Botrytis cinerea; [4])	Test D disease control rating [2, 3]	Test E disease control rating (Septoria nodorum)	Test D disease control rating [2, 5]	Test A disease control rating [1, 5]	Test B disease control rating (Septoria tritici; [5])	Test C disease control rating (Botrytis cinerea; [6])
Cc1nn(C)c(-c2c(F)cc(OCC3CC3)cc2F)c1C(O)c1ccc(F)cc1Cl (stereo not drawn) [Compound 10, α-(2-chloro-4-fluorophenyl)-5-[4-(cyclopropylmethoxy)-2,6-difluorophenyl]-1,3-dimethyl-1H-pyrazole-4-methanol]	99%	96%	12%	94%	100%	–	–	–	–
CCCCOc1cc(F)c(-c2c(C(O)c3ccc(F)cc3Cl)c(C)nn2C)c(F)c1 (stereo not drawn) [Compound 13]	0%	98%	0%	98%	–	–	–	–	–
Cc1nn(C)c(-c2c(F)cc(OCCC(C)C)cc2F)c1C(O)c1ccc(F)cc1Cl (stereo not drawn) [Compound 9, α-(2-chloro-4-fluorophenyl)-5-[2,6-difluoro-4-(3-methylbutoxy)phenyl]-1,3-dimethyl-1H-pyrazole-4-methanol]	9%	87%	0%	–	0%	21* %	–	–	–
Cc1nn(C)c(-c2c(F)cc(OCC3CCCO3)cc2F)c1C(O)c1ccc(F)cc1Cl (stereo not drawn) [Compound 15]	–	–	–	–	–	95* %	98* %	100* %	98* %
Cc1nn(C)c(-c2c(F)cc(/C=C/C3CC3)cc2F)c1C(O)c1ccc(F)cc1Cl (stereo not drawn) [Compound 1]	68%	–	0%	98%	0%	–	–	–	–
Cc1nn(C)c(-c2c(F)cc(/C=N/O)cc2F)c1C(O)c1ccc(F)cc1Cl (stereo not drawn) [Compound 11]	86%	98%	15%	69%	0%	–	–	–	–
Cc1nn(C)c(-c2c(F)cc(-n3cccn3)cc2F)c1C(O)c1ccc(F)cc1Cl (stereo not drawn) [Compound 3, α-(2-chloro-4-fluorophenyl)-5-[2,6-difluoro-4-(1H-pyrazol-1-yl)phenyl]-1,3-dimethyl-1H-pyrazole-4-methanol]	68%	–	59%	81%	98%	–	–	–	–
Cc1nn(C)c(-c2c(F)cc(C#CC3CC3)cc2F)c1C(O)c1ccc(F)cc1Cl (stereo not drawn) [Compound 2]	95%	–	98%	98%	100%	–	–	–	–
C=CCOc1cc(F)c(-c2c(C(O)c3ccc(F)cc3Cl)c(C)nn2C)c(F)c1 (stereo not drawn) [Compound 6]	99%	99%	99%	95%	–	–	–	–	–
Cc1nn(C)c(-c2c(F)cc(C3CO3)cc2F)c1C(O)c1ccc(F)cc1Cl (stereo not drawn) [Compound 8]	90%	95%	30%	27%	0%	–	–	–	–
Cc1nn(C)c(-c2c(F)cc(-n3ccc(C(F)(F)F)n3)cc2F)c1C(O)c1ccc(F)cc1Cl (stereo not drawn) [Compound 4]	0%	–	0%	0%	0%	–	–	–	–
C#CCOc1cc(F)c(-c2c(C(O)c3ccc(F)cc3Cl)c(C)nn2C)c(F)c1 (stereo not drawn) [Compound 5]	100%	99%	98%	99%	–	–	–	–	–
Cc1nn(C)c(-c2c(F)cc(OCC3OCCO3)cc2F)c1C(O)c1ccc(F)cc1Cl (stereo not drawn) [Compound 19]	–	–	–	–	–	95* %	100* %	99* %	100* %
CO/N=C/c1cc(F)c(-c2c(C(O)c3ccc(F)cc3Cl)c(C)nn2C)c(F)c1 (stereo not drawn) [Compound 14]	100%	99%	39%	95%	–	–	–	–	–

From patent publication US9961897B2, “Fungicidal pyrazoles” (E. I. DU PONT DE NEMOURS AND COMPANY, priority 2013, dated 2018)
